Earlier results, collected in US9820936B2, “Oral controlled release pharmaceutical compositions of Bepotastine” (LUPIN LIMITED, priority 2011, dated 2017).

Settings: background statement

half life: 2.4 ± 0.1 h
SMILES: O=C(O)CCCN1CCC(O[C@@H](c2ccc(Cl)cc2)c2ccccn2)CC1 [Bepotastine, (+)-(S)-4-[4-[(4-Chlorophenyl)(2-pyridyl)methoxy]piperidino]butyric acid]
